The numbers were not newly measured in patent US20170072072A1, “PH SENSITIVE FLUORESCENT COMPOUNDS AND METHODS FOR TUMOR DETECTION” (THE METHODIST HOSPITAL SYSTEM, priority 2014, published 2017), which cites them from elsewhere.

Structures are written as SMILES.

For the data set the following is noted: in DMSO.

In the case of `CC1(C)C(/C=C/C=C/C=C/C=C2\N(CCCCS(=O)(=O)O)c3ccc4ccccc4c3C2(C)C)=[N+](CCCCS(=O)(=O)[O-])c2ccc3ccccc3c21` [indocyanine green], the “quantum yield Φ of reference” value is recorded as 0.106.
